# Experimental data from ChEMBL document CHEMBL5321210, “N-adamantyl-anthranil amide derivatives: New selective ligands for the cannabinoid receptor subtype 2 (CB2R)” (Eur J Med Chem, 2023).
# Calls of active or inactive are those of the source. The calls are words filed in the database; no cut-off is given here.
# Experiments:
# Cannabinoid receptor 2 [1] = target: T1, Cannabinoid receptor 2 (Homo sapiens, UniProt P34972); experiment: Displacement of [3H]-CP55940 from human CB2 receptor expressed in HEK293 cell membrane assessed as inhibition constant incubated for 90 mins by radioligand competition binding assay; format: cell membranes
# T1 sequence (P34972 whole entry): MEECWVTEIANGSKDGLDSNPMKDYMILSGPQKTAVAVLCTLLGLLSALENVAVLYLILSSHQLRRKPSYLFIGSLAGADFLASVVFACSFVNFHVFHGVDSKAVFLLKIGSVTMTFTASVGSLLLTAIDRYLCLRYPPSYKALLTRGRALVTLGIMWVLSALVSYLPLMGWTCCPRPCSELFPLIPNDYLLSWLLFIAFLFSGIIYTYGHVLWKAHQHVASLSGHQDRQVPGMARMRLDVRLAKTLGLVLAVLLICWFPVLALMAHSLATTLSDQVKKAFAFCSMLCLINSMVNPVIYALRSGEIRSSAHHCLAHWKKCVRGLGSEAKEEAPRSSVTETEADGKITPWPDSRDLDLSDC
# Cannabinoid receptor 1 [2] = target: T2, Cannabinoid receptor 1 (Homo sapiens, UniProt P21554); experiment: Displacement of [3H]-CP55940 from human CB1 receptor expressed in HEK293 cell membrane at 1 uM incubated for 60 mins by radioligand competition binding assay relative to control; format: cell membranes
# T2 sequence (P21554 whole entry): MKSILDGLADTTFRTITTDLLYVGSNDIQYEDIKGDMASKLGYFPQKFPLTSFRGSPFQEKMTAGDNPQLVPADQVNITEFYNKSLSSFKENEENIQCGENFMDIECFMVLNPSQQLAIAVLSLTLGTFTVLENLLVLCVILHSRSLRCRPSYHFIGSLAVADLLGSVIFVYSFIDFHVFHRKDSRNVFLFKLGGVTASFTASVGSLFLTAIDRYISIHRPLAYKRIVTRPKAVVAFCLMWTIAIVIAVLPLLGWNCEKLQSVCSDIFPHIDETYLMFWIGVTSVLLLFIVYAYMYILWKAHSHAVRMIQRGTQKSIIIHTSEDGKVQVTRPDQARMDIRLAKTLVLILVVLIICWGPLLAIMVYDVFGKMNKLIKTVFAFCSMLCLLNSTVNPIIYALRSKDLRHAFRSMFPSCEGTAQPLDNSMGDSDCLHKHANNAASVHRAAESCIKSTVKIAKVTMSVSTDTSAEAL
# Cannabinoid receptor 2 [3] = target: T1, Cannabinoid receptor 2; experiment: Agonist activity at human CB2 receptor expressed in CHO-K1 cells assessed as inhibition of NKH-477 induced cAMP production incubated for 30 mins by luminescence based analysis; format: functional, cell-based
# Cannabinoid receptor 2 [4] = target: T1, Cannabinoid receptor 2; experiment: Displacement of [3H]-CP55940 from human CB2 receptor expressed in HEK293 cell membrane at 1 uM incubated for 90 mins by radioligand competition binding assay relative to control; format: cell membranes
# Cannabinoid receptor 2 [5] = target: T1, Cannabinoid receptor 2; experiment: Antagonist activity at human CB2 receptor expressed in CHO-K1 cells assessed as reversal of JWH-133 mediated cAMP reduction preincubated with compound for 15 mins followed by JWH-133 addition and measured after 30 mins in the presence of NKH-477 by luminescence based analysis; format: functional, cell-based; conditions: filed as antagonist, time 45.0 min
# THP-1 [6] = experiment: Antiinflammatory activity in PMA-differentiated human THP-1 macrophages assessed as increase in IL-4 production at 1 to 10 uM incubated for 24 hrs by ELISA coupled qRT-PCR analysis; format: functional, cell-based; conditions: dose 1-10 µM
# THP-1 [7] = experiment: Antiinflammatory activity in PMA-differentiated human THP-1 macrophages assessed as increase in IL-10 production at 1 to 10 uM incubated for 24 hrs by ELISA coupled qRT-PCR analysis; format: functional, cell-based; conditions: dose 1-10 µM
# THP-1 [8] = experiment: Antiinflammatory activity against LPS-activated PMA-differentiated human THP-1 macrophages assessed as increase in IL-10 production at 10 uM incubated for 24 hrs by ELISA coupled qRT-PCR analysis; format: functional, cell-based
# THP-1 [9] = experiment: Antiinflammatory activity against LPS-activated PMA-differentiated human THP-1 macrophages assessed as increase in IL-4 production at 10 uM incubated for 24 hrs by ELISA coupled qRT-PCR analysis; format: functional, cell-based
# THP-1 [10] = experiment: Antiinflammatory activity in human THP-1 monocytes assessed as increase in IL-4 production at 1 to 10 uM incubated for 24 hrs by ELISA coupled qRT-PCR analysis; format: functional, cell-based; conditions: dose 1-10 µM
# THP-1 [11] = experiment: Antiinflammatory activity in human THP-1 monocytes assessed as increase in IL-10 production at 1 to 10 uM incubated for 24 hrs by ELISA coupled qRT-PCR analysis; format: functional, cell-based; conditions: dose 1-10 µM
# THP-1 [12] = experiment: Antiinflammatory activity in human THP-1 monocytes assessed as decrease in IL-1beta production at 1 to 10 uM incubated for 24 hrs by ELISA coupled qRT-PCR analysis; format: functional, cell-based; conditions: dose 1-10 µM
# THP-1 [13] = experiment: Antiinflammatory activity in human THP-1 monocytes assessed as decrease in IL-6 production at 1 to 10 uM incubated for 24 hrs by ELISA coupled qRT-PCR analysis; format: functional, cell-based; conditions: dose 1-10 µM
# THP-1 [14] = experiment: Antiinflammatory activity in human THP-1 monocytes assessed as decrease in TNF-alpha production at 1 to 10 uM incubated for 24 hrs by ELISA coupled qRT-PCR analysis; format: functional, cell-based; conditions: dose 1-10 µM
# THP-1 [15] = experiment: Antiinflammatory activity in human THP-1 monocytes assessed as decrease in IFN-gamma production at 1 to 10 uM incubated for 24 hrs by ELISA coupled qRT-PCR analysis; format: functional, cell-based; conditions: dose 1-10 µM
# THP-1 [16] = experiment: Antiinflammatory activity against LPS-activated human THP-1 monocytes assessed as decrease in TNF-alpha production at 1 to 10 uM incubated for 24 hrs by ELISA coupled qRT-PCR analysis; format: functional, cell-based; conditions: dose 1-10 µM
# THP-1 [17] = experiment: Antiinflammatory activity against LPS-activated human THP-1 monocytes assessed as decrease in IFN-gamma production at 1 to 10 uM incubated for 24 hrs by ELISA coupled qRT-PCR analysis; format: functional, cell-based; conditions: dose 1-10 µM
# THP-1 [18] = experiment: Antiinflammatory activity against LPS-activated human THP-1 monocytes assessed as decrease in IL-1beta production at 1 to 10 uM incubated for 24 hrs by ELISA coupled qRT-PCR analysis; format: functional, cell-based; conditions: dose 1-10 µM
# THP-1 [19] = experiment: Antiinflammatory activity against LPS-activated human THP-1 monocytes assessed as decrease in IL-6 production at 1 to 10 uM incubated for 24 hrs by ELISA coupled qRT-PCR analysis; format: functional, cell-based; conditions: dose 1-10 µM
# THP-1 [20] = experiment: Antiinflammatory activity against LPS-activated human THP-1 monocytes assessed as increase in IL-4 production at 1 to 10 uM incubated for 24 hrs by ELISA coupled qRT-PCR analysis; format: functional, cell-based; conditions: dose 1-10 µM
# THP-1 [21] = experiment: Antiinflammatory activity against LPS-activated human THP-1 monocytes assessed as increase in IL-10 production at 1 to 10 uM incubated for 24 hrs by ELISA coupled qRT-PCR analysis; format: functional, cell-based; conditions: dose 1-10 µM
# THP-1 [22] = experiment: Antiinflammatory activity in PMA-differentiated human THP-1 macrophages assessed as decrease in IL-1beta production at 1 to 10 uM incubated for 24 hrs by ELISA coupled qRT-PCR analysis; format: functional, cell-based; conditions: dose 1-10 µM
# THP-1 [23] = experiment: Antiinflammatory activity in PMA-differentiated human THP-1 macrophages assessed as decrease in IL-6 production at 1 to 10 uM incubated for 24 hrs by ELISA coupled qRT-PCR analysis; format: functional, cell-based; conditions: dose 1-10 µM
# THP-1 [24] = experiment: Antiinflammatory activity in PMA-differentiated human THP-1 macrophages assessed as decrease in TNF-alpha production at 1 to 10 uM incubated for 24 hrs by ELISA coupled qRT-PCR analysis; format: functional, cell-based; conditions: dose 1-10 µM
# THP-1 [25] = experiment: Antiinflammatory activity in PMA-differentiated human THP-1 macrophages assessed as decrease in IFN-gamma production at 1 to 10 uM incubated for 24 hrs by ELISA coupled qRT-PCR analysis; format: functional, cell-based; conditions: dose 1-10 µM
# THP-1 [26] = experiment: Antiinflammatory activity against LPS-activated PMA-differentiated human THP-1 macrophages assessed as decrease in IFN-gamma production at 1 to 10 uM incubated for 24 hrs by ELISA coupled qRT-PCR analysis; format: functional, cell-based; conditions: dose 1-10 µM
# THP-1 [27] = experiment: Antiinflammatory activity against LPS-activated PMA-differentiated human THP-1 macrophages assessed as decrease in TNF-alpha production at 1 to 10 uM incubated for 24 hrs by ELISA coupled qRT-PCR analysis; format: functional, cell-based; conditions: dose 1-10 µM
# THP-1 [28] = experiment: Antiinflammatory activity against LPS-activated PMA-differentiated human THP-1 macrophages assessed as decrease in IL-1beta production at 1 to 10 uM incubated for 24 hrs by ELISA coupled qRT-PCR analysis; format: functional, cell-based; conditions: dose 1-10 µM
# THP-1 [29] = experiment: Antiinflammatory activity against LPS-activated PMA-differentiated human THP-1 macrophages assessed as decrease in IL-6 production at 1 to 10 uM incubated for 24 hrs by ELISA coupled qRT-PCR analysis; format: functional, cell-based; conditions: dose 1-10 µM
# Cannabinoid receptor 2 [30] = target: T1, Cannabinoid receptor 2; experiment: Agonist activity at human CB2 receptor expressed in CHO-K1 cells assessed as inhibition of NKH-477 induced cAMP production by measuring maximal efficacy incubated for 30 mins by luminescence based analysis relative to control; format: functional, cell-based; conditions: filed as agonist
# Cannabinoid receptor 1 [31] = target: T2, Cannabinoid receptor 1; experiment: Displacement of [3H]-CP55940 from human CB1 receptor expressed in HEK293 cell membrane assessed as inhibition constant incubated for 60 mins by radioligand competition binding assay; format: cell membranes
compound,measurement,setting,value
CCCCCCNc1ccc(-c2ccccc2)cc1C(=O)NC12CC3CC(CC(C3)C1)C2,Ki,Cannabinoid receptor 2 [1],209 nM
same,Activity,Cannabinoid receptor 1 [2],35%
CCCCCCCNc1ccccc1C(=O)NC12CC3CC(CC(C3)C1)C2,Ki,Cannabinoid receptor 2 [1],923 nM
same,Activity,Cannabinoid receptor 1 [2],4%
CCCC(C)(C)c1ccc2c(c1)OC(C)(C)[C@@H]1CC=C(C)C[C@@H]21,EC50,Cannabinoid receptor 2 [3],169000 nM
CCCCCCCNc1ccc(-c2ccccc2)cc1C(=O)NC12CC3CC(CC(C3)C1)C2,Ki,Cannabinoid receptor 2 [1],1180 nM
same,Activity,Cannabinoid receptor 1 [2],22%
CCCCCNc1ccc(-c2cccs2)cc1C(=O)NC12CC3CC(CC(C3)C1)C2,Ki,Cannabinoid receptor 2 [1],2600 nM
same,Activity,Cannabinoid receptor 1 [2],15%
CCCCCCNc1ccccc1C(=O)NC12CC3CC(CC(C3)C1)C2,Ki,Cannabinoid receptor 2 [1],485 nM
same,Activity,Cannabinoid receptor 1 [2],6%
CCCCCCCNc1ccc(-c2cccnc2)cc1C(=O)NC12CC3CC(CC(C3)C1)C2,Activity,Cannabinoid receptor 2 [4],31%
same,Activity,Cannabinoid receptor 1 [2],16%
CCCCCNc1ccc(-c2ccccc2)cc1C(=O)NC1CCCCC1,Activity,Cannabinoid receptor 2 [4],21%
same,Activity,Cannabinoid receptor 1 [2],3%
CCCCCNc1ccc(-c2ccc(OC)cc2)cc1C(=O)NC12CC3CC(CC(C3)C1)C2,Ki,Cannabinoid receptor 2 [1],148 nM
same,Activity,Cannabinoid receptor 1 [2],23%
CCCCCCNc1ccc(-c2cccs2)cc1C(=O)NC12CC3CC(CC(C3)C1)C2,Ki,Cannabinoid receptor 2 [1],465 nM
same,Activity,Cannabinoid receptor 1 [2],32%
CCCCCCNc1ccc(-c2cccnc2)cc1C(=O)NC12CC3CC(CC(C3)C1)C2,Ki,Cannabinoid receptor 2 [1],6500 nM
same,Activity,Cannabinoid receptor 1 [2],9%
CCCCCNc1ccc(-c2ccccc2)cc1C(=O)NC12CC3CC(CC(C3)C1)C2,Ki,Cannabinoid receptor 2 [1],47.8 nM
same,Activity,Cannabinoid receptor 1 [2],5%
same,Activity,Cannabinoid receptor 2 [5],Active
same,Activity,THP-1 [6],inactive
same,Activity,THP-1 [7],inactive
same,Activity,THP-1 [8],inactive
same,Activity,THP-1 [9],inactive
same,Activity,THP-1 [10],inactive
same,Activity,THP-1 [11],inactive
same,Activity,THP-1 [12],inactive
same,Activity,THP-1 [13],inactive
same,Activity,THP-1 [14],inactive
same,Activity,THP-1 [15],inactive
same,Activity,THP-1 [16],inactive
same,Activity,THP-1 [17],inactive
same,Activity,THP-1 [18],inactive
same,Activity,THP-1 [19],inactive
same,Activity,THP-1 [20],inactive
same,Activity,THP-1 [21],inactive
same,Activity,THP-1 [22],inactive
same,Activity,THP-1 [23],inactive
same,Activity,THP-1 [24],inactive
same,Activity,THP-1 [25],inactive
same,Activity,THP-1 [26],inactive
same,Activity,THP-1 [27],inactive
same,Activity,THP-1 [28],inactive
same,Activity,THP-1 [29],inactive
CCCCCNc1ccc(-c2cccc(F)c2)cc1C(=O)NC12CC3CC(CC(C3)C1)C2,Ki,Cannabinoid receptor 2 [1],71 nM
same,Activity,Cannabinoid receptor 1 [2]; filed as agonist,42%
same,EC50,Cannabinoid receptor 2 [3],5250 nM
same,Emax,Cannabinoid receptor 2 [30],86.6%
CCCCCNc1ccc(-c2ccc(C(N)=O)cc2)cc1C(=O)NC12CC3CC(CC(C3)C1)C2,Activity,Cannabinoid receptor 2 [4],19%
same,Activity,Cannabinoid receptor 1 [2],14%
COc1ccc2c(c1)c(CCN1CCOCC1)c(C)n2C(=O)c1cccc(Cl)c1Cl,Ki,Cannabinoid receptor 2 [1],6.9 nM
CCCCCNc1ccc(-c2ccc(F)cc2)cc1C(=O)NC12CC3CC(CC(C3)C1)C2,Ki,Cannabinoid receptor 2 [1],89.5 nM
same,Ki,Cannabinoid receptor 1 [31],754 nM
CCCCCNc1ccc(-c2cccc(C(N)=O)c2)cc1C(=O)NC12CC3CC(CC(C3)C1)C2,Activity,Cannabinoid receptor 2 [4],21%
same,Activity,Cannabinoid receptor 1 [2],3%
CCCCCNc1ccc(Br)cc1C(=O)NC12CC3CC(CC(C3)C1)C2,Ki,Cannabinoid receptor 2 [1],456 nM
same,Activity,Cannabinoid receptor 1 [2],5%
CCCCCNc1ccc(-c2cccc(C)c2)cc1C(=O)NC12CC3CC(CC(C3)C1)C2,Activity,Cannabinoid receptor 2 [4],37%
same,Activity,Cannabinoid receptor 1 [2],14%
CCCCCCCNc1ccc(Br)cc1C(=O)NC12CC3CC(CC(C3)C1)C2,Activity,Cannabinoid receptor 2 [4],16%
same,Activity,Cannabinoid receptor 1 [2],8%
CCCCCCNc1ccc(Br)cc1C(=O)NC12CC3CC(CC(C3)C1)C2,Activity,Cannabinoid receptor 2 [4],26%
same,Activity,Cannabinoid receptor 1 [2],17%
CCCCCNc1ccc(-c2ccc(C)cc2)cc1C(=O)NC12CC3CC(CC(C3)C1)C2,Ki,Cannabinoid receptor 2 [1],129 nM
same,Activity,Cannabinoid receptor 1 [2],16%
CCCCCCCNc1ccc(-c2cccs2)cc1C(=O)NC12CC3CC(CC(C3)C1)C2,Ki,Cannabinoid receptor 2 [1],160 nM
same,Activity,Cannabinoid receptor 1 [2],7%
same,EC50,Cannabinoid receptor 2 [3],5600 nM
same,Emax,Cannabinoid receptor 2 [30],75%
CCCCCNc1ccc(-c2ccc(C(=O)OC)cc2)cc1C(=O)NC12CC3CC(CC(C3)C1)C2,Activity,Cannabinoid receptor 2 [4],12%
same,Activity,Cannabinoid receptor 1 [2],6%
CCCCCNc1ccc(-c2cccnc2)cc1C(=O)NC12CC3CC(CC(C3)C1)C2,Ki,Cannabinoid receptor 2 [1],330 nM
same,Activity,Cannabinoid receptor 1 [2],1%
same,EC50,Cannabinoid receptor 2 [3],10400 nM
same,Emax,Cannabinoid receptor 2 [30],98.1%
CCCCCNc1ccc(-c2cccc(OC)c2)cc1C(=O)NC12CC3CC(CC(C3)C1)C2,Activity,Cannabinoid receptor 2 [4],25%
same,Activity,Cannabinoid receptor 1 [2],28%
Cc1c(C(=O)NC23CC4CC(CC(C4)C2)C3)nn(CCCCCO)c1-c1ccccc1,Ki,Cannabinoid receptor 2 [1]; hek293,0.08 nM
